Assay results from patent publication US8323909B2, “Methods of identifying small molecules for renewals, survival and migration of cardiac progenitors” (The Regents of the University of California, priority 2006, dated 2012).

Tested on: isl1+ cardiac progenitor cells
Assay: Chemical compound screen with β-gal tagged isl1+ cardiac progenitors (luciferase/β-gal activity, β-gal+ cell count, isl1 immunohistochemistry)
Type: cell-based, mouse
Source text: The inventors developed an assay based on the β-gal tagged cardiac progenitors to identify small molecules and defined factors that can trigger the renewal of the cardiac progenitors (FIGS. 4A and 4B). The isl1-mER-Cre-mER knock-in mice were utilized to conditionally mark embryonic and post-natal isl1+ cardiac progenitors. Mice which are double heterozygous for the isl1-mER-Cre-mER and the R26R-indicator allele allow the purification of a relatively homogeneous population of isl1+ cardiac progenitors after amplification on mesenchymal feeder layers.
The β-gal substrate 6-O-β-galactopyranosyl-luciferin allows luciferase-mediated detection of light emission in genetically lacZ labelled cells in a high throughput manner (FIGS. 4A and 4B). 6-O-galactopyranosyl-luciferin is cleaved by (3-gal into D-Luciferin, which is processed by luciferase in an ATP-dependent step into Oxyluciferin and light.
After screening a small molecule library containing over 15,000 compounds, a series of compounds that can trigger the expression of lacZ activity as well as the induction of the isl1 protein in cultured cardiac progenitor preparations was identified.
The screen was based on three independent read-out systems. First, the chemical compound library was screened for luciferase activity, and thereby indirectly for β-gal activity of proliferating cells. Second, β-gar progenitor cells were counted within the mesenchymal feeder layers with and without compound treatment, and third, expression of the transcription factor isl1^+ per progenitor cell was screened in an immunohistochemically based analysis.

## O=C1Nc2cc(Br)ccc2/C1=C1/Nc2ccccc2/C1=N\O [BIO, 6-bromoindirubin-3′-oxime]
  effect on the proliferation capacity of isl1+ cardiac progenitor cells: 50-80 fold
Cardiac progenitor cells from isl1-mER-Cre-mER/R26R mice, after 4 days in culture, luciferase assay
  β-galactosidase activity: significant increase
Cells counted within mesenchymal feeder layers with and without compound treatment
  β-gal+ progenitor cell number: significant increase
Result in words (FIG. 5 legend)
  proliferation of isl1+ precursor cells: significant increase
